# Source: publication PMC8145704, “Conformational Plasticity of Hepatitis B Core Protein Spikes Promotes Peptide Binding Independent of the Secretion Phenotype” (Microorganisms, 2021)
# “Also recorded” adds a separate entry of the source. Where two headings read alike, the source gives them in different places. Ends that are not written are not given here.
# Tests used:
# WT-HBc capsids = details: GRMKG added at 10-fold molar excess; SLLGRM sample taken at the end of the ITC experiment (more than 95% of binding sites occupied)
# [1] = target: T1, WT-HBc capsids (hepatitis B core protein) (Hepatitis B virus genotype D subtype ayw, UniProt P03146); type: binding, Hepatitis B virus (genotype D; strain ayw); details: for KD: N-terminally unmodified, terminally amidated peptides, dnb = did not bind HBc, SLLGRM fitted with stoichiometry fixed to 0.25
# T1 construct: these predictions are also valid for full-length variants with randomly packaged host–RNA; made in house; host or cells: E. coli BL21 (DE3) Star
# P5T-HBc capsids = P5T-HBc capsids (Hepatitis B virus genotype D subtype ayw, UniProt P03146, P5T); assay: Isothermal titration calorimetry (ITC) of peptide binding to P5T-HBc capsids; set-up: species or system Hepatitis B virus (genotype D; strain ayw); details: 20 °C, ITC buffer 2, mean ± SD of 6 repeats
# L60V-HBc capsids = L60V-HBc capsids (Hepatitis B virus genotype D subtype ayw, UniProt P03146, L60V); assay: Isothermal titration calorimetry (ITC) of peptide binding to L60V-HBc capsids; set-up: species or system Hepatitis B virus (genotype D; strain ayw); details: 20 °C, ITC buffer 2, stoichiometry fixed to 0.5, mean ± SD of 3 repeats
# [2] = for solubility (soluble up to): no buffer stated at this place, peptides were dissolved in ITC dialysis buffer, pH 7.5
# F97L-HBc capsids = F97L-HBc capsids (Hepatitis B virus genotype D subtype ayw, UniProt P03146, F97L); assay: Isothermal titration calorimetry (ITC) of peptide binding to F97L-HBc capsids; set-up: species or system Hepatitis B virus (genotype D; strain ayw); details: 20 °C, ITC buffer 2, mean ± SD of 5 repeats
# [3] = ITC, 20 °C, ITC buffer 2, mean ± SD of 6 repeats
# [4] = ITC, 20 °C, ITC buffer 2, single repeat, ± fit error
# [5] = ITC, 37 °C, ITC buffer 1, single repeat, ± fit error
molecule,measurement,setting,value
SLLGRM-NH2 [SLLGRM],association of peptide with capsids in the cryo-EM map,WT-HBc capsids,only the CD spikes bound
same,∆ST,"[1]; ITC, 20 °C, ITC buffer 2, stoichiometry fixed to 0.25, single repeat",-3.2 kcal/mol
same,∆H,"[1]; ITC, 20 °C, ITC buffer 2, stoichiometry fixed to 0.25, single repeat, ± fit error",-8.3 ± 0.2 kcal/mol
CSCC[C@H](NC(=O)[C@H](CCCNC(=N)N)NC(=O)CNC(=O)[C@H](CC(C)C)NC(=O)[C@H](CC(C)C)NC(=O)[C@H](CO)NC(=O)CN)C(=O)N[C@@H](CCCCN)C(=O)NCC(=O)N[C@@H](C)C(N)=O [P2],∆H,P5T-HBc capsids,-7.7 ± 0.8 kcal/mol
same,∆ST,P5T-HBc capsids,-2.1 ± 0.9 kcal/mol
same,∆H,[1]; [3],-14.4 ± 1.6 kcal/mol
same,∆ST,[1]; [3],-8.8 ± 1.6 kcal/mol
same,∆H,L60V-HBc capsids,-6.6 ± 1.2 kcal/mol
same,∆ST,L60V-HBc capsids,-1.4 ± 1.3 kcal/mol
same,"solubility compared with the other peptide, in words",[2]; P2 compared with the longer P1,better soluble
same,solubility (soluble up to),[2],up to 8 mM
same,∆H,F97L-HBc capsids,-9.9 ± 1.0 kcal/mol
same,∆ST,F97L-HBc capsids,-4.7 ± 0.9 kcal/mol
GRMKG,association of peptide with capsids in the cryo-EM map,WT-HBc capsids,no association
same,KD,[1]; [4],no measurable affinity and dnb
SLLGEM,KD,[1]; [4],no binding detected and dnb
SLKGRM,KD,[1]; [4],no binding detected and dnb
CSCC[C@H](NC(=O)[C@H](CCCNC(=N)N)NC(=O)CNC(=O)[C@H](CC(C)C)NC(=O)[C@H](CC(C)C)NC(=O)[C@H](CO)NC(=O)[C@H](CCCNC(=N)N)NC(=O)[C@H](Cc1c[nH]cn1)NC(=O)[C@@H](N)CCSC)C(=O)N[C@@H](CCCCN)C(=O)NCC(=O)N[C@@H](C)C(N)=O [P1],∆ST,"[1]; ITC, 37 °C, ITC buffer 1, single repeat",-2.5 kcal/mol
same,Ratio Peptide/HBc,[1]; [5],0.45 ± 0.02
same,∆H,[1]; [5],-9.0 ± 0.6 kcal/mol
same,aggregation of HBc capsids caused by the peptide,"[1]; in words, endothermic contribution at higher P1 concentrations in ITC (37 °C, ITC buffer 1) attributed to aggregation",aggregation of P1 and capsids; also recorded: causes aggregation of HBc capsids
same,solubility (soluble up to),[2],up to 8 mM
